Data set [1] in a line: Unbound drug concentration in the external medium by ultrafiltration (Centrifree) and immunoassay. The settings on record: mean (range).
Data set [2] is described as follows: In vitro microdialysis with the intravenous EIRUS CVC catheter: drug concentrations in medium and dialysate, relative recovery (RRT, RRU). The following applies: perfusate NaCl 0.9% 5 μL/min, 37°C; for Concentration dialysate: EIRUS catheter 5000 Da cutoff, immunoassay, mean (range).
The mark [3] stands for this setting: Human plasma, immunoassay, triplicate (gentamicin marked **).
Where [4] appears, read: Human serum, immunoassay, triplicate (gentamicin repeated twice).
[5] abbreviates: Medium 5: 0.2 mmol/L phosphate buffer with albumin 40 g/L in NaCl 0.9% pH 6.9, immunoassay, triplicate.

Consider two compounds from publication PMC6594919 (Pharmacology Research & Perspectives, 2019).

SMILES strings stand for the structures.

Regarding `CNC(C)C1CCC(N)C(OC2C(N)CC(N)C(OC3OCC(C)(O)C(NC)C3O)C2O)O1` (stereo not shown) [Gentamicin], the “Unbound drug concentration medium” value was 8.9 (7.7‐10.9) mg/L in data set [1] (setting [3]), 7.7 (6.6‐8.9) mg/L in data set [1] (setting [4]) and 7.3 (7.2‐7.4) mg/L in data set [1] (setting [5]). The Concentration dialysate in data set [2] (Human plasma, triplicate (gentamicin marked **)) is 8.4 (7.1‐9.6) mg/L; in data set [2] (Human serum, triplicate (gentamicin repeated twice)), 7.1 (5.8‐8.3) mg/L; in data set [2] (Medium 3: 0.2 mmol/L phosphate buffer pH 7.4, triplicate), 21.5 (21.1‐21.8) mg/L; in data set [2] (Medium 5: 0.2 mmol/L phosphate buffer with albumin 40 g/L in NaCl 0.9% pH 6.9, triplicate), 7.5 (7.4‐7.8) mg/L.
Consider `CN[C@H](CC(C)C)C(=O)N[C@H]1C(=O)N[C@@H](CC(N)=O)C(=O)N[C@H]2C(=O)N[C@H]3C(=O)N[C@H](C(=O)N[C@H](C(=O)O)c4cc(O)cc(O)c4-c4cc3ccc4O)[C@H](O)c3ccc(c(Cl)c3)Oc3cc2cc(c3O[C@@H]2O[C@H](CO)[C@@H](O)[C@H](O)[C@H]2O[C@H]2C[C@](C)(N)[C@H](O)[C@H](C)O2)Oc2ccc(cc2Cl)[C@H]1O` [Vancomycin], for which the “Unbound drug concentration medium” value in data set [1] (setting [3]) is 13.2 (10.0‐14.9) mg/L; in data set [1] (setting [4]) it was 13.2 (13.2‐13.2) mg/L; in data set [1] (Medium 4: 0.2 mmol/L phosphate buffer with albumin 40 g/L pH 7.1, immunoassay, triplicate) it was 6.7 (6.6‐7.4) mg/L; in data set [1] (setting [5]), 10.3 (10.3‐10.4) mg/L; in data set [1] (Medium 6: 0.2 mmol/L phosphate buffer with albumin 40 g/L in NaCl 1.8%, immunoassay, repeated twice) it was 13.3 (13.3‐13.3) mg/L. In addition, in data set [2] (EIRUS catheter, t-test: significant difference prior to 60 minutes, none after), the “Time after which a constant (stable) recovery was observed” value is 60 min.
